Results reported in patent US11253594B2, “Drug combinations for protecting against neuronal cell death” (UNIVERSITY OF PITTSBURGH-OF THE COMMONWEALTH SYSTEM OF …, priority 2017, dated 2022).

System: STHdh^Q111 cells
Test: 384-well PI (propidium iodide) assay, protection from mHTT induced cell death
Type: cell-based, mouse
Details: FIG. 10
Description: The well-established STHdh^Q111 cell model for HD was employed to identify compounds that can protect neuronal cells from mHTT-dependent cell death. […] The propidium iodide (PI) readout enables an unbiased assessment of cell death by measuring an irreversible step that is common to all cytotoxic mechanisms.
The stress conditions for testing compounds involved incubation of the cells in serum-free medium at 37° C. and 5% CO2.
Prior to compound treatment, medium was removed and the cells washed once with PBS (pH=7.4) after which 45 μl of complete medium was added. Compounds in 5 μl complete medium were added to cells. […] Compounds in serum free medium (5 μl) were added and cells were incubated at 37° C. and 5% CO2.
Image analysis was carried out using the Multiwavelength Cell Scoring application in the MetaXpress software. The nuclear compartment was identified in Ch1 with a threshold intensity of 2,000 above background and the Texas Red compartment was identified in Ch2 with a threshold intensity of 20,000 above background.
For the analyses presented here the Percent Recovery was calculated from the Percent PI positive cells by:
[formula] where positive controls are the STHdh^Q7 cells, and negative controls are the STHdh^Q111 cells treated with DMSO
The LOPAC library was screened in the 384-well PI assay at 30, 10, and 3 μM.

CCOc1ccc2nc(S(C)(=O)=O)sc2c1 [methyl sulfonyl analog of ETX, 6-ethoxy-2-(methylsulfonyl) benzo[d]thiazole]
efficacy relative to ethoxzolamide: equally efficacious | STHdh^Q111 cells protected (maximal protection): ~50% | potency in protecting STHdh^Q111 cells relative to ETX (propidium iodide assay): 7 fold
